Experiment: xn = mol fraction of the nth substance listed
Details: 101 kPa, Liquid; for viscosity: Capillary tube (Ostwald / Ubbelohde) method; for speed of sound: Frequency=3 MHz, Linear variable-path acoustic interferometer

Cc1cc(C)cc(C)c1 [1,3,5-trimethylbenzene] + C1COCCO1
Details	speed of sound [m/s]	viscosity [mPa·s]
293.15 K, x2 = 0	1360.4	0.7056
293.15 K, x2 = 0.0696	1354.2	0.7332
293.15 K, x2 = 0.1408	1348.2	0.7648
293.15 K, x2 = 0.2098	1342.8	0.7974
293.15 K, x2 = 0.28	1337.8	0.8326
293.15 K, x2 = 0.3558	1333.1	0.8728
293.15 K, x2 = 0.4276	1329.3	0.9131
293.15 K, x2 = 0.5066	1326.5	0.9597
293.15 K, x2 = 0.5801	1325	1.005
293.15 K, x2 = 0.6548	1325.4	1.054
293.15 K, x2 = 0.7227	1327.5	1.099
293.15 K, x2 = 0.7936	1332	1.149
293.15 K, x2 = 0.8663	1340	1.202
293.15 K, x2 = 0.9319	1351	1.252
298.15 K, x2 = 0	1339.8	0.6592
298.15 K, x2 = 0.0696	1333.4	0.6835
298.15 K, x2 = 0.1408	1327.5	0.7112
298.15 K, x2 = 0.2098	1322.1	0.7398
298.15 K, x2 = 0.28	1317.1	0.7712
298.15 K, x2 = 0.3558	1312.5	0.8066
298.15 K, x2 = 0.4276	1308.9	0.8422
298.15 K, x2 = 0.5066	1306	0.8838
298.15 K, x2 = 0.5801	1304.5	0.9244
298.15 K, x2 = 0.6548	1304.7	0.9678
298.15 K, x2 = 0.7227	1306.5	1.009
298.15 K, x2 = 0.7936	1310.8	1.053
298.15 K, x2 = 0.8663	1318.5	1.101
298.15 K, x2 = 0.9319	1329	1.146
303.15 K, x2 = 0	1319.6	0.6188
303.15 K, x2 = 0.0696	1313.2	0.6405
303.15 K, x2 = 0.1408	1307.3	0.6646
303.15 K, x2 = 0.2098	1301.9	0.6896
303.15 K, x2 = 0.28	1297.1	0.7168
303.15 K, x2 = 0.3558	1292.5	0.7483
303.15 K, x2 = 0.4276	1288.9	0.78
303.15 K, x2 = 0.5066	1286	0.8167
303.15 K, x2 = 0.5801	1284.5	0.8532
303.15 K, x2 = 0.6548	1284.6	0.8918
303.15 K, x2 = 0.7227	1286.4	0.9287
303.15 K, x2 = 0.7936	1290.3	0.9688
303.15 K, x2 = 0.8663	1297.6	1.012
303.15 K, x2 = 0.9319	1307.8	1.052
308.15 K, x2 = 0	1300.2	0.5792
308.15 K, x2 = 0.0696	1294	0.5994
308.15 K, x2 = 0.1408	1287.9	0.6212
308.15 K, x2 = 0.2098	1282.6	0.6438
308.15 K, x2 = 0.28	1277.6	0.6685
308.15 K, x2 = 0.3558	1273	0.6966
308.15 K, x2 = 0.4276	1269.2	0.7253
308.15 K, x2 = 0.5066	1266.3	0.7589
308.15 K, x2 = 0.5801	1264.6	0.7918
308.15 K, x2 = 0.6548	1264.7	0.8274
308.15 K, x2 = 0.7227	1266.2	0.8612
308.15 K, x2 = 0.7936	1270	0.8982
308.15 K, x2 = 0.8663	1277	0.9376
308.15 K, x2 = 0.9319	1286.7	0.9752
313.15 K, x2 = 0	1280.4	0.5422
313.15 K, x2 = 0.0696	1274.3	0.5609
313.15 K, x2 = 0.1408	1268.3	0.5813
313.15 K, x2 = 0.2098	1262.9	0.6022
313.15 K, x2 = 0.28	1258	0.6248
313.15 K, x2 = 0.3558	1253.3	0.651
313.15 K, x2 = 0.4276	1249.6	0.6774
313.15 K, x2 = 0.5066	1246.4	0.7084
313.15 K, x2 = 0.5801	1244.7	0.7391
313.15 K, x2 = 0.6548	1244.6	0.7717
313.15 K, x2 = 0.7227	1246.1	0.8032
313.15 K, x2 = 0.7936	1249.9	0.8372
313.15 K, x2 = 0.8663	1256.5	0.874
313.15 K, x2 = 0.9319	1265.7	0.9088
318.15 K, x2 = 0	1263	0.5066
318.15 K, x2 = 0.0696	1256.9	0.5246
318.15 K, x2 = 0.1408	1250.8	0.5436
318.15 K, x2 = 0.2098	1245.3	0.5634
318.15 K, x2 = 0.28	1240.3	0.5846
318.15 K, x2 = 0.3558	1235.4	0.6092
318.15 K, x2 = 0.4276	1231.5	0.6342
318.15 K, x2 = 0.5066	1228.3	0.6632
318.15 K, x2 = 0.5801	1226.4	0.692
318.15 K, x2 = 0.6548	1226	0.7224
318.15 K, x2 = 0.7227	1227.1	0.7515
318.15 K, x2 = 0.7936	1230.5	0.7836
318.15 K, x2 = 0.8663	1236.7	0.8178
318.15 K, x2 = 0.9319	1245.3	0.8501

Cc1ccc(C)cc1 [1,4-dimethylbenzene] + C1COCCO1
Details	speed of sound [m/s]	viscosity [mPa·s]
293.15 K, x2 = 0	1328.4	0.6505
293.15 K, x2 = 0.0716	1326.1	0.6921
293.15 K, x2 = 0.1445	1324.1	0.7358
293.15 K, x2 = 0.2132	1322.7	0.7779
293.15 K, x2 = 0.2871	1321.7	0.8239
293.15 K, x2 = 0.3582	1321.3	0.8691
293.15 K, x2 = 0.4358	1321.6	0.9192
293.15 K, x2 = 0.5042	1322.7	0.964
293.15 K, x2 = 0.5846	1325	1.018
293.15 K, x2 = 0.6543	1328.1	1.065
293.15 K, x2 = 0.7249	1332.5	1.113
293.15 K, x2 = 0.7923	1338.1	1.159
293.15 K, x2 = 0.8623	1345.6	1.208
293.15 K, x2 = 0.9311	1355.2	1.257
298.15 K, x2 = 0	1307.4	0.6115
298.15 K, x2 = 0.0716	1305.1	0.6484
298.15 K, x2 = 0.1445	1303.2	0.6871
298.15 K, x2 = 0.2132	1301.9	0.7245
298.15 K, x2 = 0.2871	1300.9	0.7654
298.15 K, x2 = 0.3582	1300.5	0.8054
298.15 K, x2 = 0.4358	1300.8	0.8499
298.15 K, x2 = 0.5042	1301.8	0.8898
298.15 K, x2 = 0.5846	1304	0.9374
298.15 K, x2 = 0.6543	1307	0.9792
298.15 K, x2 = 0.7249	1311.2	1.022
298.15 K, x2 = 0.7923	1316.6	1.064
298.15 K, x2 = 0.8623	1323.9	1.107
298.15 K, x2 = 0.9311	1333.1	1.151
303.15 K, x2 = 0	1287.3	0.5766
303.15 K, x2 = 0.0716	1285.1	0.6095
303.15 K, x2 = 0.1445	1283.2	0.644
303.15 K, x2 = 0.2132	1281.9	0.677
303.15 K, x2 = 0.2871	1280.9	0.7133
303.15 K, x2 = 0.3582	1280.5	0.7488
303.15 K, x2 = 0.4358	1280.8	0.7884
303.15 K, x2 = 0.5042	1281.8	0.8239
303.15 K, x2 = 0.5846	1283.9	0.8663
303.15 K, x2 = 0.6543	1286.8	0.9037
303.15 K, x2 = 0.7249	1290.8	0.9422
303.15 K, x2 = 0.7923	1296	0.9792
303.15 K, x2 = 0.8623	1303	1.018
303.15 K, x2 = 0.9311	1311.9	1.057
308.15 K, x2 = 0	1267.6	0.544
308.15 K, x2 = 0.0716	1265.4	0.5737
308.15 K, x2 = 0.1445	1263.6	0.605
308.15 K, x2 = 0.2132	1262.2	0.635
308.15 K, x2 = 0.2871	1261.2	0.6677
308.15 K, x2 = 0.3582	1260.8	0.6999
308.15 K, x2 = 0.4358	1261	0.7358
308.15 K, x2 = 0.5042	1261.8	0.768
308.15 K, x2 = 0.5846	1263.8	0.8064
308.15 K, x2 = 0.6543	1266.5	0.8403
308.15 K, x2 = 0.7249	1270.4	0.875
308.15 K, x2 = 0.7923	1275.4	0.9086
308.15 K, x2 = 0.8623	1282	0.9441
308.15 K, x2 = 0.9311	1290.5	0.9791
313.15 K, x2 = 0	1248.3	0.5132
313.15 K, x2 = 0.0716	1246.2	0.5407
313.15 K, x2 = 0.1445	1244.3	0.5693
313.15 K, x2 = 0.2132	1242.9	0.5968
313.15 K, x2 = 0.2871	1241.9	0.6269
313.15 K, x2 = 0.3582	1241.4	0.6565
313.15 K, x2 = 0.4358	1241.6	0.6894
313.15 K, x2 = 0.5042	1242.3	0.7189
313.15 K, x2 = 0.5846	1244.1	0.7542
313.15 K, x2 = 0.6543	1246.7	0.7853
313.15 K, x2 = 0.7249	1250.3	0.8172
313.15 K, x2 = 0.7923	1255	0.8479
313.15 K, x2 = 0.8623	1261.4	0.8802
313.15 K, x2 = 0.9311	1269.5	0.9126
318.15 K, x2 = 0	1229.8	0.4862
318.15 K, x2 = 0.0716	1227.7	0.5116
318.15 K, x2 = 0.1445	1225.8	0.538
318.15 K, x2 = 0.2132	1224.4	0.5633
318.15 K, x2 = 0.2871	1223.3	0.5911
318.15 K, x2 = 0.3582	1222.8	0.6185
318.15 K, x2 = 0.4358	1222.8	0.6488
318.15 K, x2 = 0.5042	1223.4	0.676
318.15 K, x2 = 0.5846	1225	0.7084
318.15 K, x2 = 0.6543	1227.4	0.737
318.15 K, x2 = 0.7249	1230.8	0.7663
318.15 K, x2 = 0.7923	1235.2	0.7946
318.15 K, x2 = 0.8623	1241.3	0.8244
318.15 K, x2 = 0.9311	1248.9	0.854
